In patent US20250243210A1, “CRBN E3 LIGASE LIGAND COMPOUND, PROTEIN DEGRADER DEVELOPED BASED THEREON AND THEIR APPLICATIONS” (GLUETACS THERAPEUTICS (SHANGHAI) CO., LTD., priority 2021, published 2025):
Where two headings read alike, the source gives them in different places.

Tests used:
[1] = system: Hep3B2.1-7; assay: CCK-8 tumor cell proliferation, Hep3B2.1-7; type: cell-based, Human; conditions: Hep3B2.1-7, 96 h, read-out: IC50 for inhibiting the proliferation of tumor cells, Hep3B2.1-7
Protocol: (§1) Determination of half inhibitory concentration (IC50) of the compounds against tumor cells:
(§2) The tumor cells used herein were cultured in a cell culture medium listed in table 6 at 37° C. in an incubator with 5% CO2. Prior to experimentation, all cells used were correctly identified by STR profiling, and tested negative for mycoplasma through routine screenings.
(§3) IC50 values of the compounds of the present disclosure (including the compounds in Table 4 and compounds of examples 1-72) were measured using the Meilun Cell Counting Kit-S kit from Dalian Meilun Biotech Co., Ltd. Assay details are as follows: tumor cells were seeded in a 96-well plate at a density listed in Table 7. After 24 h, 100 μL of the inoculated cells were treated with 0.5 μL of the compounds of the present disclosure (including the compounds in Table 4 and compounds of examples 1-72) at 10 different successively decreasing concentrations (starting at the highest concentration of 10 μM; 5-fold serial dilutions). After the cells were treated with the compounds of the present disclosure for a period of time (the treatment times listed in Table 7), the cell viability detection reagent was added to the culture medium for cell viability assessment according to the instructions provided with the CCK-8 kit. […] The growth inhibition of the compounds of the present disclosure on cells was plotted by Prism Graphpad software, and the IC50 values of the compounds of the present disclosure were calculated therefrom.

[2] = system: LNcap; assay: CCK-8 tumor cell proliferation, LNcap; type: cell-based, Human; conditions: 96 h, read-out: IC50 for inhibiting the proliferation of tumor cells, LNcap
Protocol: as §1, §2, §3

[3] = system: MGC80-3; assay: CCK-8 tumor cell proliferation, MGC80-3; type: cell-based, Human; conditions: read-out: IC50 for inhibiting the proliferation of tumor cells, MGC80-3
Protocol: as §1, §2, §3

[4] = system: MM.1R; assay: CCK-8 tumor cell proliferation, MM.1R; type: cell-based; conditions: 72 h, read-out: IC50 for inhibiting the proliferation of tumor cells, MM.1R
Protocol: as §1
(§4) The tumor cells used herein were cultured in a cell culture medium listed in table 6 at 37° C. in an incubator with 5% CO2.
(§5) After the cells were treated with the compounds of the present disclosure for a period of time (the treatment times listed in Table 7), the cell viability detection reagent was added to the culture medium for cell viability assessment according to the instructions provided with the CCK-8 kit. […] The growth inhibition of the compounds of the present disclosure on cells was plotted by Prism Graphpad software, and the IC50 values of the compounds of the present disclosure were calculated therefrom.

[5] = system: DU-145; assay: CCK-8 tumor cell proliferation, DU-145; type: cell-based, Human; conditions: DU-145, 96 h, read-out: IC50 for inhibiting the proliferation of tumor cells, DU-145
Protocol: as §1, §4, §5

[6] = system: WSU-DLCL2; assay: CCK-8 tumor cell proliferation, WSU-DLCL2; type: cell-based, Human; conditions: read-out: IC50 for inhibiting the proliferation of tumor cells, WSU-DLCL2
Protocol: as §1, §4, §5

[7] = Homo sapiens, MGC-803, MGC80-3, 96 h
[8] = Homo sapiens, WSUDLCL2, WSU-DLCL2, 96 h

SMILES: CC1(C)[C@H](NC(=O)c2ccc(N3CCC(CN4C5CC4CN(c4cc6c(cc4F)C(=O)N(C4CCC(=O)NC4=O)C6=O)C5)CC3)nc2)C(C)(C)[C@H]1Oc1ccc(C#N)c(Cl)c1 (some centres unmarked) [GT-03404, N-((1r,3r)-3-(3-chloro-4-cyanophenoxy)-2,2,4,4-tetramethylcyclobutyl)-6-(4-((3-(2-(2,6-dioxopiperidin-3-yl)-6-fluoro-1,3-dioxoisoindolin-5-yl)-3,6-diazabicyclo[3.1.1]heptan-6-yl)methyl)piperidin-1-yl)nicotinamide]
- IC50 ([1]; Homo sapiens): 100 to 500 nM
- IC50 ([2]; Homo sapiens): 500 to 1000 nM
- IC50 [3, 7]: 100 to 500 nM

SMILES: N#Cc1ccc(OC2CCC(NC(=O)c3ccc(N4CCC(CN5C6CC5CN(c5cc7c(cc5F)C(=O)N(C5CCC(=O)NC5=O)C7=O)C6)CC4)nn3)CC2)cc1Cl (centres unmarked) [GT-03487, N-((1r,4r)-4-(3-chloro-4-cyanophenoxy)cyclohexyl)-6-(4-((3-(2-(2,6-dioxopiperidin-3-yl)-6-fluoro-1,3-dioxoisoindolin-5-yl)-3,6-diazabicyclo[3.1.1]heptan-6-yl)methyl)piperidin-1-yl)pyridazine-3-carboxamide]
- IC50 [2]: 100 to 500 nM
- IC50 [4]: 100 to 500 nM
- IC50 [5]: 1000 to 5000 nM
- IC50 ([6]; WSU-DLCL2, 96 h): 100 to 500 nM
- IC50 ([3]; MGC80-3, 96 h): 100 to 500 nM

SMILES: CC1(C)[C@H](NC(=O)c2ccc(N3CCC(CN4CC5CC(C4)N5c4ccc5c(c4)C(=O)N(C4CCC(=O)NC4=O)C5=O)CC3)nc2)C(C)(C)[C@H]1Oc1ccc(C#N)c(Cl)c1 (some centres unmarked) [GT-03427, N-((1r,3r)-3-(3-chloro-4-cyanophenoxy)-2,2,4,4-tetramethylcyclobutyl)-6-(4-((6-(2-(2,6-dioxopiperidin-3-yl)-1,3-dioxoisoindolin-5-yl)-3,6-diazabicyclo[3.1.1]heptan-3-yl)methyl)piperidin-1-yl)nicotinamide]
- IC50 ([2]; Homo sapiens): 500 to 1000 nM
- IC50 ([5]; Homo sapiens): 1000 to 5000 nM
- IC50 [6, 8]: 100 to 500 nM
- IC50 [3, 7]: 100 to 500 nM

SMILES: CC1(C)[C@H](NC(=O)c2ccc(N3CCC(CN4C5CCC4CN(c4ccc6c(c4)C(=O)N(C4CCC(=O)NC4=O)C6=O)C5)CC3)nc2)C(C)(C)[C@H]1Oc1ccc(C#N)c(Cl)c1 (some centres unmarked) [GT-03426, N-((1r,3r)-3-(3-chloro-4-cyanophenoxy)-2,2,4,4-tetramethylcyclobutyl)-6-(4-((3-(2-(2,6-dioxopiperidin-3-yl)-1,3-dioxoisoindolin-5-yl)-3,8-diazabicyclo[3.2.1]octan-8-yl)methyl)piperidin-1-yl)nicotinamide]
- IC50 ([1]; Homo sapiens): ≤ 50 nM
- IC50 ([2]; Homo sapiens): 50 to 100 nM
- IC50 [4]: 100 to 500 nM
- IC50 [3, 7]: 50 to 100 nM

SMILES: CC1(C)[C@H](NC(=O)c2ccc(N3CCC(CN4C5CC4CN(c4ccc6c(c4)C(=O)N(C4CCC(=O)NC4=O)C6=O)C5)CC3)nc2)C(C)(C)[C@H]1Oc1ccc(C#N)c(Cl)c1 (some centres unmarked) [GT-03471, N-((1r,3r)-3-(3-chloro-4-cyanophenoxy)-2,2,4,4-tetramethylcyclobutyl)-6-(4-((3-(2-(2,6-dioxopiperidin-3-yl)-1,3-dioxoisoindolin-5-yl)-3,6-diazabicyclo[3.1.1]heptan-6-yl)methyl)piperidin-1-yl)nicotinamide]
- IC50 ([1]; Homo sapiens): 100 to 500 nM
- IC50 ([2]; Homo sapiens): 500 to 1000 nM
- IC50 [6, 8]: 1000 to 5000 nM
- IC50 [3, 7]: 100 to 500 nM

SMILES: N#Cc1ccc(OC2CCC(NC(=O)c3ccc(N4CCC(CN5C6CC5CN(c5ccc7c(c5)C(=O)N(C5CCC(=O)NC5=O)C7=O)C6)CC4)nn3)CC2)cc1Cl (centres unmarked) [GT-03490, N-((1r,4r)-4-(3-chloro-4-cyanophenoxy)cyclohexyl)-6-(4-((3-(2-(2,6-dioxopiperidin-3-yl)-1,3-dioxoisoindolin-5-yl)-3,6-diazabicyclo[3.1.1]heptan-6-yl)methyl)piperidin-1-yl)pyridazine-3-carboxamide]
- IC50 [2]: 100 to 500 nM
- IC50 [4]: 100 to 500 nM
- IC50 [5]: 1000 to 5000 nM
- IC50 ([6]; WSU-DLCL2, 96 h): 100 to 500 nM
- IC50 ([3]; MGC80-3, 96 h): 100 to 500 nM

SMILES: N#Cc1ccc(OC2CCC(NC(=O)c3ccc(N4C5CC4CN(CC4CCN(c6cc7c(cc6F)C(=O)N(C6CCC(=O)NC6=O)C7=O)CC4)C5)nn3)CC2)cc1Cl (centres unmarked) [GT-03451, N-((1r,4r)-4-(3-chloro-4-cyanophenoxy)cyclohexyl)-6-(3-((1-(2-(2,6-dioxopiperidin-3-yl)-6-fluoro-1,3-dioxoisoindolin-5-yl)piperidin-4-yl)methyl)-3,6-diazabicyclo[3.1.1]heptan-6-yl)pyridazine-3-carboxamide]
- IC50 [2]: 100 to 500 nM
- IC50 [4]: 100 to 500 nM
- IC50 [5]: 1000 to 5000 nM
- IC50 ([6]; WSU-DLCL2, 96 h): 100 to 500 nM
- IC50 ([3]; MGC80-3, 96 h): 500 to 1000 nM

SMILES: CC1(C)[C@H](NC(=O)c2ccc(N3CCC(CN4CC5CCC(C4)N5c4ccc5c(c4)C(=O)N(C4CCC(=O)NC4=O)C5=O)CC3)nc2)C(C)(C)[C@H]1Oc1ccc(C#N)c(Cl)c1 (some centres unmarked) [GT-03425, N-((1r,3r)-3-(3-chloro-4-cyanophenoxy)-2,2,4,4-tetramethylcyclobutyl)-6-(4-((8-(2-(2,6-dioxopiperidin-3-yl)-1,3-dioxoisoindolin-5-yl)-3,8-diazabicyclo[3.2.1]octan-3-yl)methyl)piperidin-1-yl)nicotinamide]
- IC50 ([1]; Homo sapiens): ≤ 50 nM
- IC50 ([2]; Homo sapiens): 50 to 100 nM
- IC50 [4]: 100 to 500 nM
- IC50 ([5]; Homo sapiens): 500 to 1000 nM
- IC50 [6, 8]: 50 to 100 nM
- IC50 [3, 7]: ≤ 50 nM

SMILES: N#Cc1ccc(OC2CCC(NC(=O)c3ccc(N4CCC(CN5C6CCC5CN(c5ccc7c(c5)C(=O)N(C5CCC(=O)NC5=O)C7=O)C6)CC4)nn3)CC2)cc1Cl (centres unmarked) [GT-03489, N-((1r,4r)-4-(3-chloro-4-cyanophenoxy)cyclohexyl)-6-(4-((3-(2-(2,6-dioxopiperidin-3-yl)-1,3-dioxoisoindolin-5-yl)-3,8-diazabicyclo[3.2.1]octan-8-yl)methyl)piperidin-1-yl)pyridazine-3-carboxamide]
- IC50 [1]: 100 to 500 nM
- IC50 [2]: 100 to 500 nM
- IC50 [4]: 500 to 1000 nM
- IC50 [5]: 1000 to 5000 nM
- IC50 ([6]; WSU-DLCL2, 96 h): 100 to 500 nM
- IC50 ([3]; MGC80-3, 96 h): 100 to 500 nM

SMILES: N#Cc1ccc(OC2CCC(NC(=O)c3ccc(N4CC5CCC(C4)N5CC4CCN(c5cc6c(cc5F)C(=O)N(C5CCC(=O)NC5=O)C6=O)CC4)nn3)CC2)cc1Cl (centres unmarked) [GT-03450, N-((1r,4r)-4-(3-chloro-4-cyanophenoxy)cyclohexyl)-6-(8-((1-(2-(2,6-dioxopiperidin-3-yl)-6-fluoro-1,3-dioxoisoindolin-5-yl)piperidin-4-yl)methyl)-3,8-diazabicyclo[3.2.1]octan-3-yl)pyridazine-3-carboxamide]
- IC50 [2]: 100 to 500 nM
- IC50 [4]: 100 to 500 nM
- IC50 [5]: 1000 to 5000 nM
- IC50 ([6]; WSU-DLCL2, 96 h): 500 to 1000 nM
- IC50 ([3]; MGC80-3, 96 h): 100 to 500 nM

SMILES: CC1(C)[C@H](NC(=O)c2ccc(N3CCC(CN4C5CCC4CN(c4cc6c(cc4F)C(=O)N(C4CCC(=O)NC4=O)C6=O)C5)CC3)nc2)C(C)(C)[C@H]1Oc1ccc(C#N)c(Cl)c1 (some centres unmarked) [GT-03482, N-((1r,3r)-3-(3-chloro-4-cyanophenoxy)-2,2,4,4-tetramethylcyclobutyl)-6-(4-((3-(2-(2,6-dioxopiperidin-3-yl)-6-fluoro-1,3-dioxoisoindolin-5-yl)-3,8-diazabicyclo[3.2.1]octan-8-yl)methyl)piperidin-1-yl)nicotinamide]
- IC50 ([1]; Homo sapiens): 100 to 500 nM
- IC50 ([2]; Homo sapiens): 50 to 100 nM
- IC50 [4]: 100 to 500 nM
- IC50 ([5]; Homo sapiens): 100 to 500 nM
- IC50 [6, 8]: 100 to 500 nM
- IC50 [3, 7]: 50 to 100 nM
